Laboratory results reported in paper PMC6984391, “Anion carriers as potential treatments for cystic fibrosis: transport in cystic fibrosis cells, and additivity to channel-targeting drugs” (Chemical Science, 2019).
Entries after “also recorded” stand apart in the source; their conditions may differ.

What was measured:
[1] = set-up: method as in PMID 22461434, PMID 21846096, PMID 29786913; details: mol% carrier to lipid for 50% Cl^– efflux in 270 s; 490 mM NaCl inside, 490 mM NaNO3 outside; ref [22], [16 and 25]; cited from earlier work
YFP-FRT cells = test: IncuCyte ZOOM live-cell viability (DRAQ7) in YFP-FRT cells; assay type: cell-based
Description: For cytotoxicity studies, we used YFP-CFBE and YFP-FRT cells. […]
To evaluate the viability of YFP -FRT cells, we used the IncuCyte ZOOM TM (Essen Bioscience (now Sartorius), Welwyn Garden City, UK) live-cell analysis system. YFP-FRT cells were seeded in 96-well plates at a density of 4000 cells well-1 and allowed to grow for 48 h at 37 °C in a humidified atmosphere of 5% CO2. Then, the YFP-FRT culture media was replaced with fresh culture media containing test anionophores or the vehicle (DMSO 0.5% v v-1) and deep red anthraquinone 7 (DRAQ7; Biostatus, Shepshed, UK) was added following the manufacturer’s instructions before the YFP-FRT cells were transferred to the IncuCyte ZOOMTM. At 2 h intervals over a 24 h period, 4 images of each well on 96-well plates were acquired; the phase contrast images were used to determine the total number of cells per well, while the fluorescence images to identify the number of dead cells with nuclei labelled red by DRAQ7. In each experiment, one data point is the average value from four wells. […]
To investigate further the cytotoxicity of anionophores 12, 15 and 19 we used YFP-FRT cells. As a control we tested compound 11. Using the IncuCyte ZOOMTM (Essen Bioscience) live-cell analysis system and the membrane impermeable far-red fluorescent DNA dye DRAQ7 to label the nuclei of dead cells, we examined the effects of the anionophores 11, 12, 15 and 19 on the viability of YFP -FRT cells over a 24 h period. Consistent with our previous results (Fig.
S23 and ref 10), compound 11 had little effect on cell viability. Only at the highest concentrations tested (30 and 50 µM) and at time points later than 12 h (50 µM) or 14 h (30 µM) did cytotoxicity become apparent ( P < 0.05 vs. DMSO 0.5% v v -1) (Fig. S24). By contrast, the same concentrations of compounds 12, 15 and 19 had cytotoxic effects from 2 h with […]
19 (10 µM) from 8 h onwards (P < 0.05 vs. DMSO 0.5% v v -1) (Fig. S24).

YFP-CFBE cells = test: XTT cell viability assay in YFP-CFBE cells; assay type: cell-based; details: for cytotoxicity in YFP-CFBE cells (XTT): 1–50 μM, 18 h at 37 °C; for IC50: XTT, 18 h treatment, fit of first order regression (Fig. S23), read-out: half-maximal inhibitory concentration (IC50), cell viability
Description: For cytotoxicity studies, we used YFP-CFBE and YFP-FRT cells. YFP-CFBE cells were seeded in 96-well plates at a density of 5 x 10^4 cells/well and cultured at 37 °C in a humidified atmosphere of 5% CO2. Thirty hours after seeding the cells, different concentrations of anionophores were added to the culture media and the cells were incubated with anionophores for 18 h. To assay cell viability, we used the XTT Cell Proliferation Assay Kit (ATCC) according to the manufacturer’s instructions. The specific absorbance of test samples was measured using a Microplate Spectrophotometer (SpectraMax 190, Molecular Devices, Sunnyvale, CA, USA). In each experiment, multiple replicates (12 – 25 wells from 3 – 5 plates) were tested for each concentration of anionophore. […]
To evaluate the cytotoxicity of anionophores 11, 12, 15 and 19, we treated YFP-CFBE cells with the anionophores (1 – 50 µM) in DMSO for 18 h at 37 °C before assessing cell viability using sodium 2,3, -bis(2-methoxy-4-nitro-5-sulfophenyl)-5-[(phenylamino)-carbonyl]-2H-tetrazolium) (XTT). Figure S23 summarises the resu lts. Although compounds […]
(§1) (1 picture or pasted object on this page, not shown here)

[2] = set-up: method as in ref [20], [21], [23], [24], [29] (Reference column); details: transporter preincorporated in LUVs (70% POPC + 30% cholesterol), 25 mM NaCl gradient, 225 mM NaNO3; ref [20], [21], [23], [24], [29]; cited from earlier work
[3] = Affinity to Cl- by 1H NMR titration with Bu4N+Cl- in DMSO-d6/H2O (200:1); assay type: binding; details: 1H NMR titration with Bu4N^+Cl^– in DMSO-d6/H2O (200 : 1) at 298 K; new compound
Description: The binding constant to chloride was assessed using 1H NMR titrations with n-Bu4N+Cl- in DMSO-d6/H2O (200:1). The hygroscopic guest n-Bu4N+Cl- and the host compounds were dried under high vacuum to remove residual solvents or water prior to solution preparation. The concentration of the host was around 1 mM in all titrations; the concentration of guest and the volumes of the aliquots of guest solution added to the host solution were varied o ver the experiments. The guest solutions contained the same concentrations of host as the starting host solution (i.e., n-Bu4N+Cl- was dissolved in a solution of ~1 mM host in DMSO-d6/H2O (200:1)), […]
NMR titration binding studies were performed using a Varian 500b NMR spectrometer at 298
K. The shift of both NH signals in DMSO were fitted to 1:1 binding model using a least -squares fitting procedure in a custom -made Excel spreadsheet .
Figure S6. Downfield region of the 1H NMR spectra from the titration of tetrabutylammonium chloride into 12 […]
as §1

[4] = 10 μM, 24 h period, P < 0.05 vs. DMSO
[5] = 30 μM, 24 h period, P < 0.05 vs. DMSO
[6] = 50 μM, 24 h period, P < 0.05 vs. DMSO

## FC(F)(F)c1ccc(NC(=S)NCCN(CCNC(=S)Nc2ccc(C(F)(F)F)cc2)CCNC(=S)Nc2ccc(C(F)(F)F)cc2)cc1 [Compound 18]
[1]
  EC50, 270 s: 0.077 mol%

## FC(F)(F)c1cc(NC(=S)NCCN(CCNC(=S)Nc2cc(C(F)(F)F)cc(C(F)(F)F)c2)CCNC(=S)Nc2cc(C(F)(F)F)cc(C(F)(F)F)c2)cc(C(F)(F)F)c1 [Compound 19]
YFP-FRT cells; 10 μM
  toxicity (IncuCyte ZOOM): some cell death
YFP-FRT cells; [4]
  time points at which cytotoxicity is apparent: ≥ 8 h
YFP-FRT cells; [5]
  time points at which cytotoxicity is apparent: ≥ 2 h
YFP-FRT cells; [6]
  time points at which cytotoxicity is apparent: ≥ 2 h
YFP-CFBE cells
  cytotoxicity in YFP-CFBE cells (XTT): some cytotoxicity; also recorded: strongest effect
  IC50: 38 µM
[1]
  EC50, 270 s: 0.042 mol%

## CCOC(=O)[C@]12CC[C@@H](NC(=S)Nc3cc(C(F)(F)F)cc(C(F)(F)F)c3)C[C@@H]1C[C@@H](NC(=S)Nc1cc(C(F)(F)F)cc(C(F)(F)F)c1)CC2 [Compound 15]
YFP-FRT cells; 5 μM, 24 h period, P < 0.05 vs. DMSO
  time points at which cytotoxicity is apparent: ≥ 2 h
YFP-FRT cells; 10 μM
  toxicity (IncuCyte ZOOM): some cell death
YFP-FRT cells; [4]
  time points at which cytotoxicity is apparent: ≥ 2 h
YFP-FRT cells; [5]
  time points at which cytotoxicity is apparent: ≥ 2 h
YFP-FRT cells; [6]
  time points at which cytotoxicity is apparent: ≥ 2 h
YFP-CFBE cells
  cytotoxicity in YFP-CFBE cells (XTT): some cytotoxicity
  IC50: > 50 µM
[2]
  Specific initial rate [I]: 2600 s^–1

## CCOC(=O)[C@]12CC[C@@H](NC(=S)Nc3ccc([N+](=O)[O-])cc3)C[C@@H]1C[C@@H](NC(=S)Nc1ccc([N+](=O)[O-])cc1)CC2 [Compound 12]
YFP-FRT cells; rat, 24 h, 30 µM
  time points at which cytotoxicity is apparent: ≥ 2 h
YFP-FRT cells; rat, 24 h, 50 µM
  time points at which cytotoxicity is apparent: ≥ 2 h
[3]
  K a to Cl^– in DMSO: 1.7 × 10^3 M^–1
